Measurements: patent publication US8680076B2, “Methods of treatment, improvement and prevention using haloaryl substituted aminopurines” (Signal Pharmaceuticals, LLC, priority 2010, dated 2014)
“Also recorded” adds a separate entry of the source.

Key:
[1] = system: phospho-c-Jun (JNK) in normal human epithelial keratinocytes (nHEK); experiment: UVB-stimulated JNK activation in nHEK cells (Western blot); assay type: cell-based
Method: Two in vitro systems, nHEK and the EpiDermFT™ skin model, were used in this study. The nHEK cells and EpiDermFT™ samples were pretreated with JNKi-1 at concentrations of 0.1, 3, and 10 μM prior to 60 mJ/cm^2 and 135 mJ/cm^2 UVB irradiation, respectively. After UV stimulation, the activities of JNK were measured as levels of phospho-c-Jun via immunoblotting of cell lysates using an anti-phospho-c-Jun S63 antibody. Phospho-Stat3 was also evaluated as a marker of JNK activation.
nHEK Model system. Normal human epithelial keratinocytes (nHEK) cells were grown after three passages. Cells were plated at 2×10^6/plate in 100 mm plates. Plates were incubated at 37° C., 5% CO2 for 5 days until ˜80% confluent. Each plate was washed with warm phosphate buffered saline (PBS) and replenished with 10 mL of media containing either 0, 0.1, 3, or 10 μM of JNKi-1 and incubated for 1 hour (hr) at 37° C. Eight mL of media were removed and set aside. Plates were irradiated with 60 mJ/cm^2 of UVB in a UV cross-linker machine and control plates were sham irradiated. The 8 mL of media set aside were returned to each plate and stored at 37° C. Cells were harvested at 30 minutes and 4 hr post UV treatment and lysed in ice cold cell extraction buffer. Lysates were stored at −80° C.
cells were pre-incubated with either dimethyl sulfoxide (DMSO) (FIG. 31, lanes 1, 2, and 12 to 15) or JNKi-1 at the indicated concentration (lanes 3 to 11) for 1 hr and then irradiated without (Control, lanes 1 and 2) or with UVB at 60 mJ/cm^2 (lanes 3 to 15). Cells were lysed 30 minutes after UV irradiation and cell lysates were subjected to sodium dodecyl sulfate polyacrylamide gel electrophoresis (SDS-PAGE) before Western blotting with anti-phospho-c-Jun antibody. […]
Western analysis: For Western blot analysis, 20 to 25 μg of total protein were applied to SDS-PAGE gels followed by electrophoresis and blotting. […] The intensity of each band was quantified by the Odyssey 2.1 software and exported into Excel for further analysis. […]

[2] = system: phosphorylation of the JNK target cJun in dermal SSc-fibroblasts; experiment: Western Blot analysis of c-Jun phosphorylation in TGF-β/PDGF-stimulated cultured dermal fibroblasts; assay type: cell-based, human; settings: pre-incubation with compound
Method: To analyze whether the JNK pathway was activated by TGF-β and PDGF, Western Blot analysis for c-Jun in cultured dermal fibroblasts was performed.
After rinsing twice with PBS, the dermal fibroblasts were trypsinized and lysed with Laemmli Buffer. Five μg of protein from each sample were separated by 10% SDS-PAGE and electrotransferred onto polyvinylidene difluoride (PVDF) membranes according to standard protocols (Distler J H, Jungel A, Kowal-Bielecka O, Michel B A, Gay R E, Sprott H, et al. Expression of interleukin-21 receptor in epidermis from patients with systemic sclerosis. Arthritis Rheum. 2005; 52(3):856-64). Immunoblots were incubated with monoclonal antibodies against c-Jun and phospho-c-Jun (Santa Cruz, Heidelberg, Germany) at a dilution of 1:200 overnight at 4° C. After incubation with horseradish peroxidase-conjugated rabbit anti-mouse antibodies (Dako, Hamburg, Germany) for 1 hour at a dilution of 1:2000, signals were detected with ECL Western Blotting Detection Reagents (Amersham Bioscience, Freiburg, Germany). For confirmation of equal loading of proteins, the amount of β-actin was determined using mouse anti-human β-actin antibodies (Sigma-Aldrich, Munich, Germany; dilution 1:10000).

O[C@H]1CC[C@H](Nc2ncc3nc(Nc4c(F)cc(F)cc4F)n([C@H]4CCOC4)c3n2)CC1 [JNKi-1, 4-((9-((3S)-tetrahydro-3-furanyl)-8-((2,4,6-trifluorophenyl)amino)-9H-purin-2-yl)amino)-trans-cyclohexanol]
IC50 ([1]; Homo sapiens, light or radiation study, nHEK, 1 hr pretreatment, UVB 60 mJ/cm^2, lysed 30 minutes after UV, read-out: IC50 for p-cJun): 100 to 3000 nM
UVB-induced JNK activation (phospho-c-Jun level), in words ([1]; nHEK, 0.1, 3, 10 μM): strongly Inhibits; also recorded: significantly blocks
inhibition of phospho-Stat3 ([1]; nHEK, 30 minutes post UV, data not shown): minimal
stimulatory effect of PDGF on c-Jun phosphorylation [2]: completely prevented
stimulatory effects of TGF-β and PDGF on the phosphorylation of c-Jun [2]: reduced the stimulatory effects
